Experimental data published in US8293680B2, “Fungicidal mixtures of triticonazole and difenoconazole” (BASF SE, priority 2007, dated 2012).
Where two headings read alike, the source gives them in different places.

Assays:
[1] = system: Pyricularia oryzae; format: cell-based; conditions: Pyrior, solo, MTP, 405 nm, 7 days after inoculation
[2] = system: Botrytis cinerea; test: Activity against the grey mold Botrytis cinerea in the microtiterplate test (Botrci); format: cell-based; conditions: solo, MTP, 405 nm, 7 days after inoculation

Row | Compound | Observed efficacy ([1]; 4 ppm) [%] | Observed efficacy ([2]; 1 ppm) [%] | Observed efficacy ([1]; 1 ppm) [%] | Observed efficacy ([2]; 0.25 ppm) [%]
1 | CC1(C)CC/C(=C\c2ccc(Cl)cc2)C1(O)Cn1cncn1 (racemic) [Triticonazol, (±) E-5-(4-chlorobenzylidene)-2,2-dimethyl-1-(1H-1,2,4-triazol-1-ylmethyl)cyclopentanol] | 35 | 55 | – | –
2 | CC1COC(Cn2cncn2)(c2ccc(Oc3ccc(Cl)cc3)cc2Cl)O1 (stereo not shown) [Difenoconazol, 1-[2-[4-(4-chlorophenoxy)-2-chlorophenyl]-4-methyl-1,3-dioxolan-2-ylmethyl]-1H-1,2,4-triazole] | – | – | 15 | 30
